In US12336981B2, “Compounds and compositions for the inhibition of NAMPT” (Valo Health, Inc., priority 2010, dated 2025):
Where two headings read alike, the source gives them in different places.

Tests used:
A2780 cells = test: In-vitro cell proliferation assay (SRB), A2780 cells; assay type: cell-based; settings: A2780 cells, 72 hours, SRB, read-out: A2780 IC50
Procedure, shortened: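 Growth inhibition was derived from background-corrected SRB absorbance (570 nm), measured on cells fixed in 6% TCA after three days of compound treatment under 5% CO2 at 37° C.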

NAMPT = target: T1, NAMPT (Homo sapiens, UniProt P43490); test: Biochemical inhibition assay: NAMPT enzymatic reaction, NMN quantified by mass spectrometry; settings: NAMPT enzymatic assay; read-out: Biochem IC50
T1 construct: His tag; host or cells: E. coli
Procedure, shortened: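 Inhibition of E. coli-expressed His-tagged human NAMPT, measured as NMN formation by mass spectrometry after a 30 min room-temperature reaction containing 1 μM NAM, 100 μM PRPP and 2.5 mM ATP.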

T1 sequence (P43490 whole entry): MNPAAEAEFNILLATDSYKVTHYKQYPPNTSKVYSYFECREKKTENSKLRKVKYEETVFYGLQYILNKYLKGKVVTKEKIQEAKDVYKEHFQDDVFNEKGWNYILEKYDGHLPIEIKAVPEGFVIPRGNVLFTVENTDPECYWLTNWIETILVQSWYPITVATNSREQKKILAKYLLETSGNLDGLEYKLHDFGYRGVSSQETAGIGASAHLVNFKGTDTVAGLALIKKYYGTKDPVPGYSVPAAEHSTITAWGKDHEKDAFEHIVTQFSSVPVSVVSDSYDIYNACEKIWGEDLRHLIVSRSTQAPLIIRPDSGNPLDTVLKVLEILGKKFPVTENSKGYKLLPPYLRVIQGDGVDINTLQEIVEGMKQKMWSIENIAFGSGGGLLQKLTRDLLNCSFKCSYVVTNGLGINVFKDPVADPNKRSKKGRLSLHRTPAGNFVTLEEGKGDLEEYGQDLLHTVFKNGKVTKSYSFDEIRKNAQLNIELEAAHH

| SMILES | IC50 (A2780 cells; Homo sapiens, A2780, 72 h) [nM] | IC50 (NAMPT) [nM] | IC50 (A2780 cells) [nM] |
| --- | --- | --- | --- |
| O=C(NCc1ccc(S(=O)(=O)c2cccc3c2oc2ccccc23)cc1)c1cnc2nccn2c1 | 2.9 | 1.7 |  |
| O=C(NCc1ccc(S(=O)(=O)c2cccc3c2oc2ccccc23)cc1)c1cnc2[nH]ncc2c1 | 7.52 | 21 |  |
| O=C(NCc1ccc(S(=O)(=O)c2cccc3c2oc2ccccc23)cc1)c1cc2ccncc2o1 | 12.8 | 12.4 |  |
| O=C(NCc1ccc(S(=O)(=O)c2cccc3c2sc2ccccc23)cc1)c1cc2ccncc2o1 | 12 | 8.7 |  |
| O=C(NCc1ccc(S(=O)(=O)c2cccc3c2sc2ccccc23)cc1)c1cnc2nccn2c1 | 2 | 1.8 |  |
| O=C(NCc1ccc(S(=O)(=O)c2cccc3c2sc2ccccc23)cc1)c1cc2ccncc2s1 | 4.3 | 1.4 |  |
| CC(C)CNC(=O)c1cccc(S(=O)(=O)c2ccc(CNC(=O)c3cc4cnccc4[nH]3)cc2)c1 | 45.8 | 19.3 |  |
| CC(C)CNC(=O)c1cccc(S(=O)(=O)c2ccc(CNC(=O)c3cc4ccncc4o3)cc2)c1 | 26.3 | 16.9 |  |
| O=C(NCc1ccc(S(=O)(=O)c2ccc(N3CCOCC3)cc2)cc1)c1cnc2nccn2c1 | 4 | 1.7 |  |
| O=C(NCc1ccc(S(=O)(=O)c2ccc(N3CCOCC3)cc2)cc1)c1cc2ccncc2s1 | 1.5 | 1.6 |  |
| CC(C)c1ccc(S(=O)(=O)c2ccc(CNC(=O)c3cnc4nccn4c3)cc2)cc1 | 8.1 | 1.7 |  |
| CC(C)c1ccc(S(=O)(=O)c2ccc(CNC(=O)c3cc4ccncc4o3)cc2)cc1 | 8 | 11.9 |  |
| CC(C)Oc1ccc(S(=O)(=O)c2ccc(CNC(=O)c3cc4ccncc4o3)cc2)cc1 | 5.7 | 6.8 |  |
| O=C(NCc1ccc(S(=O)(=O)c2ccc(N3CCCC3)cc2)cc1)c1ccc2cn[nH]c2n1 | 4.5 | 6 |  |
| O=C(NCc1ccc(S(=O)(=O)c2ccc(N3CCCC3)cc2)cc1)c1ccc2nccn2c1 | 1.4 | 3 |  |
| O=C(NCc1ccc(S(=O)(=O)c2ccc(OC(F)(F)F)cc2)cc1)c1cc2ccncc2o1 |  | 9.4 | 27.7 |
| O=C(NCc1ccc(S(=O)(=O)c2ccc(OC(F)(F)F)cc2)cc1)c1cnc2nccn2c1 | 17.6 | 5 |  |
| O=C(NCc1ccc(S(=O)(=O)c2ccc(OC(F)(F)F)cc2)cc1)c1cnc2[nH]ncc2c1 | 22.3 | 34.6 |  |
| O=C(NCc1ccc(S(=O)(=O)c2ccc(C(F)(F)F)cc2)cc1)c1cnc2nccn2c1 | 23.5 | 6 |  |
| O=C(NCc1ccc(S(=O)(=O)c2ccc(C(F)(F)F)cc2)cc1)c1cc2ccncc2o1 | 19.8 | 8.7 |  |

| SMILES | IC50 (A2780 cells; Homo sapiens, A2780, 72 h) [nM] | IC50 (NAMPT) [nM] | IC50 (A2780 cells) [nM] |
| --- | --- | --- | --- |
| O=C(NCc1ccc(S(=O)(=O)c2ccc(Cl)cc2C(F)(F)F)cc1)c1cc2ccncc2s1 | 9.6 | 7 |  |
| O=C(NCc1ccc(S(=O)(=O)c2ccc(Cl)cc2C(F)(F)F)cc1)c1ccc2nccn2c1 | 8.5 | 19.8 |  |
| O=C(NCc1ccc(S(=O)(=O)c2ccc(Cl)cc2C(F)(F)F)cc1)c1cc2cnccc2[nH]1 | 17.4 | 42.2 |  |
| O=C(NCc1ccc(S(=O)(=O)c2ccc(Cl)cc2C(F)(F)F)cc1)c1cnc2nccn2c1 | 68.4 | 7.9 |  |
| O=C(NCc1ccc(S(=O)(=O)c2ccc(Cl)cc2C(F)(F)F)cc1)c1cc2ccncc2o1 | 25.4 | 9.8 |  |
| O=C(NCc1ccc(S(=O)(=O)c2ccc(Cl)c(C(F)(F)F)c2)cc1)c1cc2ccncc2o1 | 6.9 | 6 |  |
| O=C(NCc1ccc(S(=O)(=O)c2ccc(Cl)c(C(F)(F)F)c2)cc1)c1cnc2nccn2c1 | 4.3 | 2.8 |  |
| CC(C)Oc1cc(F)ccc1S(=O)(=O)c1ccc(CNC(=O)c2cc3cnccc3[nH]2)cc1 | 3.3 | 25.4 |  |
| CC(C)Oc1cc(F)ccc1S(=O)(=O)c1ccc(CNC(=O)c2cc3ccncc3s2)cc1 | 1.6 | 5 |  |
| CC(C)Oc1cc(F)ccc1S(=O)(=O)c1ccc(CNC(=O)c2ccc3nccn3c2)cc1 | 2.1 | 22.2 |  |
| CC(C)Oc1cc(F)ccc1S(=O)(=O)c1ccc(CNC(=O)c2cc3ccncc3o2)cc1 | 13.9 | 15.6 |  |
| O=C(NCc1ccc(S(=O)(=O)c2ccc(F)cc2C(F)(F)F)cc1)c1cc2ccncc2s1 | 14.3 | 6.4 |  |
| O=C(NCc1ccc(S(=O)(=O)c2ccc(F)cc2C(F)(F)F)cc1)c1cnc2nccn2c1 | 100 to 1000 | 18.7 |  |
| O=C(NCc1ccc(S(=O)(=O)c2ccc(F)cc2C(F)(F)F)cc1)c1cc2cnccc2[nH]1 | 14.1 | 27 |  |
| O=C(NCc1ccc(S(=O)(=O)c2ccc(F)cc2C(F)(F)F)cc1)c1ccc2nccn2c1 | 15 | 4 |  |
| O=C(NCc1ccc(S(=O)(=O)c2ccc(F)c(OCC(F)(F)F)c2)cc1)c1cc2ccncc2s1 | 11.8 | 3.3 |  |
| O=C(NCc1ccc(S(=O)(=O)c2ccc(F)c(OCC(F)(F)F)c2)cc1)c1cc2ccncc2o1 | 25.5 | 8.7 |  |
| O=C(NCc1ccc(S(=O)(=O)c2ccc(F)c(OCC(F)(F)F)c2)cc1)c1cnc2nccn2c1 | 6.5 | 2.4 |  |
| O=C(NCc1ccc(S(=O)(=O)c2ccc(F)c(OCC(F)(F)F)c2)cc1)c1cc2cnccc2[nH]1 | 6.5 | 10.3 |  |
| O=C(NCc1ccc(S(=O)(=O)c2ccc(F)c(C(F)(F)F)c2)cc1)c1cc2ccncc2s1 | 2.8 | 4 |  |

| SMILES | IC50 (A2780 cells; Homo sapiens, A2780, 72 h) [nM] | IC50 (NAMPT) [nM] | IC50 (A2780 cells) [nM] |
| --- | --- | --- | --- |
| O=C(NCc1ccc(S(=O)(=O)c2ccc(F)c(C(F)(F)F)c2)cc1)c1cc2cnccc2[nH]1 | 4.3 | 16.4 |  |
| O=C(NCc1ccc(S(=O)(=O)c2ccc(F)c(C(F)(F)F)c2)cc1)c1ccc2nccn2c1 | 1.7 | 4 |  |
| O=C(NCc1ccc(S(=O)(=O)c2ccc(F)c(C(F)(F)F)c2)cc1)c1cc2ccncc2o1 | 7.2 | 8.2 |  |
| COc1ccc(S(=O)(=O)c2ccc(CNC(=O)c3cnc4nccn4c3)cc2)c(C(F)(F)F)c1 | 65.7 | 7 |  |
| COc1ccc(S(=O)(=O)c2ccc(CNC(=O)c3cc4ccncc4o3)cc2)c(C(F)(F)F)c1 | 15.2 | 14.6 |  |
| COc1ccc(S(=O)(=O)c2ccc(CNC(=O)c3cc4cnccc4[nH]3)cc2)c(C(F)(F)F)c1 | 13 | 80.4 |  |
| COc1ccc(S(=O)(=O)c2ccc(CNC(=O)c3cc4ccncc4s3)cc2)c(C(F)(F)F)c1 | 13 | 21.7 |  |
| CCN(CC)C(=O)c1ccc(F)c(S(=O)(=O)c2ccc(CNC(=O)c3cc4cnccc4[nH]3)cc2)c1 | 26.2 | 38.4 |  |
| O=C(NCc1ccc(S(=O)(=O)c2cc(Cl)ccc2OCC(F)F)cc1)c1ccc2nccn2c1 | 0.3 | 2 |  |
| O=C(NCc1ccc(S(=O)(=O)c2cc(Cl)ccc2OCC(F)F)cc1)c1cc2cnccc2[nH]1 | 0.5 | 5 |  |
| O=C(NCc1ccc(S(=O)(=O)c2cc(Cl)ccc2OCC(F)(F)F)cc1)c1ccc2nccn2c1 | 0.3 | 1 |  |
| C#CCOc1ccc(Cl)cc1S(=O)(=O)c1ccc(CNC(=O)c2ccc3nccn3c2)cc1 | 1.4 | 7 |  |
| CC(C)Oc1ccc(Cl)cc1S(=O)(=O)c1ccc(CNC(=O)c2cc3ccncc3o2)cc1 | 12.1 | 9.1 |  |
| O=C(NCc1ccc(S(=O)(=O)c2cc(F)ccc2CO)cc1)c1cc2cnccc2[nH]1 | 67.5 | 16.9 |  |
| O=C(NCc1ccc(S(=O)(=O)c2cc(F)ccc2CO)cc1)c1cc2ccncc2s1 | 24.9 | 7.7 |  |
| O=C(NCc1ccc(S(=O)(=O)c2cc(F)ccc2CO)cc1)c1ccc2nccn2c1 | 65 | 10.4 |  |
| O=C(NCc1ccc(S(=O)(=O)c2cc(F)ccc2CO)cc1)c1cnc2nccn2c1 | 100 to 1000 | 12.9 |  |
| O=C(NCc1ccc(S(=O)(=O)c2cc(O)ccc2OC(F)(F)F)cc1)c1cc2ccncc2o1 | 11.5 | 6.4 |  |
| O=C(NCc1ccc(S(=O)(=O)c2cc(O)ccc2OC(F)(F)F)cc1)c1cnc2[nH]ncc2c1 | 67.9 | 21.9 |  |
